The target of the test is human TRPA1 (Homo sapiens, UniProt O75762). The test is described as follows: FLIPR Ca2+ assay, reduction of hydrogen peroxide activation of TRPA1. It is filed as cell-based. Details: expressed in transfected cells. The note with it: for inhibition at 100 µM / inhibition at 400 µM: read-out: % Reduction of Hydrogen Peroxide TRPA1 Activation; for inhibition at 400 µM: antagonist 400 μM against 200 μM hydrogen peroxide. The protocol:
After centrifugation, a pellet of cells was formed in the bottom of the tube separating them from the supernatant solution.
The pelleted cells were re-suspended in 10 ml assay buffer and 90 μl aliquots (˜50,000 cells) per well delivered to a 96-well assay plate containing 10 μl of test compounds ([…]) or buffer control and incubated at room temperature for 30 minutes.

[1] abbreviates: 100 μM antagonist vs 500 μM hydrogen peroxide.
[2] abbreviates: compound 100 μM against 200 μM hydrogen peroxide, Sets 1-4.
[3] abbreviates: 400 μM antagonist vs 500 μM hydrogen peroxide.

Where two headings read alike, the source gives them in different places.

human TRPA1, sequence (O75762 whole entry): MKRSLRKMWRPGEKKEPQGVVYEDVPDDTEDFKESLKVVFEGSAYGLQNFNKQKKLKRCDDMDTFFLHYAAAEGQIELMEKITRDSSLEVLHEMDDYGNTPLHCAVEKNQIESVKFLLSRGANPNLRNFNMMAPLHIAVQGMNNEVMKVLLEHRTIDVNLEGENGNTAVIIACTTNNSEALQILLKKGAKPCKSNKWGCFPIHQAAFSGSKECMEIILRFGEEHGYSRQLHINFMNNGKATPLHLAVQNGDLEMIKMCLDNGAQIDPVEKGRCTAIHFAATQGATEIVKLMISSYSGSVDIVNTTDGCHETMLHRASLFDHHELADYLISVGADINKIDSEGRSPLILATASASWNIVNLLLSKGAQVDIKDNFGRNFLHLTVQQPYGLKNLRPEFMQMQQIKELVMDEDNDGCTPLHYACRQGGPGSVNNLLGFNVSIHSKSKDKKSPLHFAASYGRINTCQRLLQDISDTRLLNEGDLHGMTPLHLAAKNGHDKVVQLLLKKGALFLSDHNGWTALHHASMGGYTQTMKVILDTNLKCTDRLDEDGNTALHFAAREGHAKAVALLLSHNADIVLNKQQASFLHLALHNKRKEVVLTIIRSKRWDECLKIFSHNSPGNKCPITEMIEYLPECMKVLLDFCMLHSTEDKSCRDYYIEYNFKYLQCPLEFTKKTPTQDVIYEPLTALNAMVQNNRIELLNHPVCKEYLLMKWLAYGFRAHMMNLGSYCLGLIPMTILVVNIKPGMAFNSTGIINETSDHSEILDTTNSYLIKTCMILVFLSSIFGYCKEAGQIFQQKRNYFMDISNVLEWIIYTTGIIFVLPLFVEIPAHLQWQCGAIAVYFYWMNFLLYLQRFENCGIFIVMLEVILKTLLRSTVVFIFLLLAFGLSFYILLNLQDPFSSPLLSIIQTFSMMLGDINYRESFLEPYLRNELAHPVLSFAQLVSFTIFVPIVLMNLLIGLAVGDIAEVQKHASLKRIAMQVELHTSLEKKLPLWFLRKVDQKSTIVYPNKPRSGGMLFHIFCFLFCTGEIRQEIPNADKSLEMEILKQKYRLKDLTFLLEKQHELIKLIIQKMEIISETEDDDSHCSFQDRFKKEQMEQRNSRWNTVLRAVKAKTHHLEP

In the case of `CCC(=O)c1nccs1` [2-propionylthiazole], under setting [1], the “Block of hydrogen peroxide activation of TRPA1” value (“Block” below) is reported as “BLOCK ONLY H2O2/TRPA1”. For the same compound, under setting [2], the “Average Ca++ Counts” value is 4875.0 Counts and the inhibition at 100 µM was found to be 54%.
In the case of `c1ccc2ncccc2c1` [quinoline], the “Block” value under setting [1] is reported as “BLOCK ONLY H2O2/TRPA1”. Besides, under setting [2], the “Average Ca++ Counts” value was 3440.0 Counts and the inhibition at 100 µM is 51.2%.
In the case of `CC(C)CCCC(C)CCO` (stereo not drawn) [3,7-Dimethyl-1-octanol], the “Block” value under setting [1] was “BLOCK ONLY H2O2/TRPA1”.
On the same count and under the same terms, in the case of `C=C(C)c1ccc(C)cc1` [Alpha-p-dimethylstyrene] it was “BLOCK ONLY H2O2/TRPA1”.
On to `CC1=CC(O)CC(C)C2CC(=C(C)C)CC12` (stereo not drawn) [Vetiverol, 6-Azulenol, 1,2,3,3a,4,5,6,8a-octahydro-4,8-dimethyl-2-(1-methylethylidene)-], for which the inhibition at 400 µM is -34%.
`CC1CCC(=O)C1=O` (stereo not drawn) [3-methyl-1,2-cyclopentanedione]: the “Block” value under setting [1] is listed as “BLOCK ONLY H2O2/TRPA1”. Moreover, under setting [2], the “Average Ca++ Counts” value is reported as 3246.5 Counts and the inhibition at 100 µM worked out at 53.9%.
Taken in the same sequence, the figures for `CCC=C(C)C(=O)O` [2-methyl-2-pentenoic acid] were “BLOCK ONLY H2O2/TRPA1”, 5040.0 Counts and 52.4%.
Taken in the same sequence, the figures for `CCOc1nccnc1C` [2-methyl-3-ethoxypyrazine] were “BLOCK ONLY H2O2/TRPA1”, 3197.0 Counts and 54.6%.
Consider `CC(C)CCCC(C)CCO` (stereo not drawn) [3,7-dimethyl-1-octanol, 95%, 3,7-dimethyl-1-octanol], for which, under setting [2], the “Average Ca++ Counts” value was 5168.0 Counts and the inhibition at 100 µM is 51.2%.
For `CCCCOC(=O)C(C)O` (stereo not drawn) [butyl lactate], the “Block” value under setting [1] is “BLOCK ONLY H2O2/TRPA1”. Under setting [2], the “Average Ca++ Counts” value was 5157.0 Counts and the inhibition at 100 µM turned out to be 51.3%.
For `CCCCO` [n-butyl alcohol], the “% Reduction of Hydrogen Peroxide TRPA1 Activation” value (“% Reduction” for short) stood at 57.3%, the “Average Ca++ Counts” value was 3009.0 Counts and the “Block” value was “BLOCK ONLY H2O2/TRPA1”.
Turning to `O=C(O)c1cccc(O)c1` [3-hydroxybenzoic acid], the “Block” value under setting [1] is “BLOCK ONLY H2O2/TRPA1”. Under setting [2], the “Average Ca++ Counts” value is 3284.5 Counts and the inhibition at 100 µM worked out at 53.4%.
Taken in the same sequence, the figures for `CCCCC(CC)CO` (stereo not drawn) [2-ethyl-1-hexanol] were “BLOCK ONLY H2O2/TRPA1”, 4960.5 Counts and 53.2%.
As for `Cc1ccc(C(C)C)cc1O` [carvacrol], the “Average Ca++ Counts” value is 3464.5 Counts and the inhibition at 100 µM came out at 50.8%.
`CCCCCO` [amyl alcohol]: the “Block” value under setting [1] is recorded as “BLOCK ONLY H2O2/TRPA1”. Besides, under setting [2], the “Average Ca++ Counts” value turned out to be 3149.0 Counts and the inhibition at 100 µM was 55.3%.
As for `CC1=CC(=O)[C@@H]2C[C@H]1C2(C)C` (racemic) [dl-verbenone], the “% Reduction” value is 54.1%, the “Average Ca++ Counts” value was 3231.0 Counts and the “Block” value is on record as “BLOCK ONLY H2O2/TRPA1”.
On to `COC(=O)c1ccccc1OC` [Methyl 2-methoxy-benzoate], for which the inhibition at 400 µM is 48%. Also, the “Block” value under setting [3] is on record as “BLOCK ONLY H2O2/TRPA1”.
For `CC(=O)C(C)O` (stereo not drawn) [acetoin], the “Block” value under setting [1] is “BLOCK ONLY H2O2/TRPA1”. Further, under setting [2], the “Average Ca++ Counts” value is on record as 4341.5 Counts and the inhibition at 100 µM turned out to be 59%.
In the same order, the values of `C/C=C(\C)C(=O)OCc1ccccc1` [benzyl tiglate] are “BLOCK ONLY H2O2/TRPA1”, 2385.0 Counts and 59.4%.
With `CC1CC(O)CC(C)(C)C1` (stereo not drawn) [3,3,5-Trimethylcyclohexanol], the inhibition at 400 µM came to 72%. Under setting [3], the “Block” value was “BLOCK ONLY H2O2/TRPA1”.
In the same order, the values of `CCCCC(=O)OC1CC2CCC1(C)C2(C)C` (stereo not drawn) [Bornyl Valerate] are 52% and “BLOCK ONLY H2O2/TRPA1”.
As to `CC(C)CCO` [isopentyl alcohol], under setting [1], the “Block” value is given as “BLOCK ONLY H2O2/TRPA1”. Further, under setting [2], the “Average Ca++ Counts” value is 3778.0 Counts and the inhibition at 100 µM was 56.7%.
Taken in the same sequence, the figures for `CCCCCCO` [1-hexanol] were “BLOCK ONLY H2O2/TRPA1”, 5664.5 Counts and 46.5%.
In the same order, the values of `CCC(C)(O)CCc1ccccc1` (stereo not drawn) [ethyl methyl beta-phenylethyl carbinol] are “BLOCK ONLY H2O2/TRPA1”, 2253.5 Counts and 68%.
`CCCCCCCCC1CCC(=O)O1` (stereo not drawn) [γ-Dodecalactone]: the “% Reduction” value is given as 51% and the “Block” value is recorded as “BLOCK ONLY H2O2/TRPA1”.
For `NC(N)=O` [urea], the “% Reduction” value is listed as 52.4%, the “Average Ca++ Counts” value stood at 5045.5 Counts and the “Block” value is “BLOCK ONLY H2O2/TRPA1”.
Regarding `CC1=CCC(C(C)C)=CC1` [gamma-terpinene], under setting [1], the “Block” value was “BLOCK ONLY H2O2/TRPA1”. In addition, under setting [2], the “Average Ca++ Counts” value came out at 3124.0 Counts and the inhibition at 100 µM worked out at 55.6%.
As to `CCC(C)COC(=O)C(C)CC` (stereo not drawn) [2-Methyl butyl 2-methylbutyrate], under setting [1], the “Block” value is on record as “BLOCK ONLY H2O2/TRPA1”.
`CCCCCC(=O)CCCCC` [6-undecanone]: under setting [1], the “Block” value is “BLOCK ONLY H2O2/TRPA1”. In addition, under setting [2], the “Average Ca++ Counts” value came to 3357.5 Counts and the inhibition at 100 µM is 52.3%.
With `CC(C)C=C(C=O)c1ccccc1` (mixture of isomers) [4-Methyl-2-phenyl-2 Pentenal], the inhibition at 400 µM worked out at 54%.
Turning to `CCCCCCC1OCC(C)O1` (stereo not drawn) [2-hexyl-4-methyl-1,3-dioxolan], under setting [2], the “Average Ca++ Counts” value was found to be 3376.0 Counts and the inhibition at 100 µM is 52.1%.
For `CCCCCCC1CCCC(=O)O1` (stereo not drawn) [Undecanoic-δ-Lactone], the “% Reduction” value was −42%.
For the compound `CCCCCCC1OCC(C)O1` (stereo not drawn) [2-Hexyl-4-methyl-1,3-dioxolane], under setting [1], the “Block” value is on record as “BLOCK ONLY H2O2/TRPA1”.
`CCC(C)CS` (stereo not drawn) [2-methyl-1-butanethiol]: under setting [1], the “Block” value was “BLOCK ONLY H2O2/TRPA1”. Moreover, under setting [2], the “Average Ca++ Counts” value was 3208.0 Counts and the inhibition at 100 µM is 54.5%.
`COC(=O)c1ccccc1` [methylbenzoate]: the “Average Ca++ Counts” value came to 3817.0 Counts, the “Block” value is “BLOCK ONLY H2O2/TRPA1” and the inhibition at 100 µM turned out to be 56.2%.
Regarding `CCCCC/C=C\C/C=C\CCCCCCCC(=O)OC` [methyl linoleate], the “Block” value under setting [1] is “BLOCK ONLY H2O2/TRPA1”. Further, under setting [2], the “Average Ca++ Counts” value is listed as 3363.5 Counts and the inhibition at 100 µM turned out to be 52.2%.

The record behind these values is patent US20130315843A1, “COMPOSITION FOR REDUCTION OF TRPA1 AND TRPV1 SENSATIONS” (priority 2012, published 2013).
